Legend:
THP-1 [1] = test: Immunosuppressive activity in PMA-differentiated human THP1 cells assessed as inhibition of LPS-stimulated IL-6 production by flow cytometry; format: functional, cell-based
Candida albicans = test: Antifungal activity against Monilia albicans ATCC 10231 measured after 24 hrs by broth macrodilution method; format: functional; conditions: ATCC 10231, 24 h
[2] = system: Trichophyton mentagrophytes; test: Antifungal activity against Trichophyton mentagrophytes ATCC 4439 by broth macrodilution method; format: functional
Trichophyton rubrum = test: Antifungal activity against Trichophyton rubrum ATCC 4438 measured after 4 to 7 days by broth macrodilution method; format: functional
THP-1 [3] = test: Cytotoxicity against human THP1 cells after 72 hrs by CCK8 assay; format: functional, cell-based; conditions: THP-1, 72 h
A549 = test: Cytotoxicity against human A549 cells after 72 hrs by CCK8 assay; format: functional, cell-based; conditions: A549, 72 h
HepG2 = test: Cytotoxicity against human HepG2 cells after 72 hrs by CCK8 assay; format: functional, cell-based; conditions: HepG2, 72 h

| IC50 (THP-1 [1]) [µM] | MIC (Candida albicans) [µg/mL] | MIC [2] [µg/mL] | MIC (Trichophyton rubrum) [µg/mL] | Compound | IC50 (THP-1 [3]) [µM] | IC50 (A549) [µM] | IC50 (HepG2) [µM] |
| --- | --- | --- | --- | --- | --- | --- | --- |
| 8.2 | > 50 | > 50 | > 50 | CN1[C@H](CCCCCC(=O)O)C[C@H](O)[C@@H]1Cc1ccccc1 | > 20 | > 20 | > 20 |
| 9.9 | > 50 | > 50 | > 50 | CN1[C@H](CCCCCCC(=O)O)C[C@H](O)[C@@H]1Cc1ccccc1 | > 20 | > 20 | > 20 |
| 0.67 | – | – | – | CC(C)=CCC/C(C)=C/Cc1cc(-c2coc3cc(O)ccc3c2=O)ccc1O | – | – | – |
| 21 | > 50 | > 50 | > 50 | CN1[C@H](CCC(=O)O)C[C@H](O)[C@@H]1Cc1ccccc1 | > 20 | > 20 | > 20 |
| 22 | > 50 | > 50 | > 50 | CN1[C@H](CCCCC(=O)O)C[C@H](O)[C@@H]1Cc1ccccc1 | > 20 | > 20 | > 20 |
| 0.19 | > 50 | > 50 | > 50 | CC[C@@H](O)CCCCCC[C@@H]1C[C@H](O)[C@H](Cc2ccccc2)N1C | > 20 | > 20 | > 20 |
| 14 | > 50 | > 50 | > 50 | C[C@@H](O)CCCCCCC[C@@H]1C[C@H](O)[C@H](Cc2ccccc2)N1C | > 20 | > 20 | > 20 |
| 0.11 | > 50 | > 50 | > 50 | CN1[C@H](CCCCCCCCC(=O)O)C[C@H](O)[C@@H]1Cc1ccccc1 | > 20 | > 20 | > 20 |
| 16 | > 50 | > 50 | > 50 | CCCC(O)CCCCC[C@@H]1C[C@H](O)[C@H](Cc2ccccc2)N1C (mixture of isomers) | > 20 | > 20 | > 20 |

| Compound | IC50 (THP-1 [1]) [µM] | MIC (Candida albicans) [µg/mL] | MIC [2] [µg/mL] | MIC (Trichophyton rubrum) [µg/mL] | IC50 (THP-1 [3]) [µM] | IC50 (A549) [µM] | IC50 (HepG2) [µM] |
| --- | --- | --- | --- | --- | --- | --- | --- |
| CC(O)CCCCC[C@@H]1C[C@H](O)[C@H](Cc2ccccc2)N1C (mixture of isomers) | 2.3 | > 50 | > 50 | > 50 | > 20 | > 20 | > 20 |

Reference: ChEMBL document CHEMBL4196246, “Preussins with Inhibition of IL-6 Expression from Aspergillus flocculosus 16D-1, a Fungus Isolated from the Marine Sponge Phakellia fusca” (J Nat Prod, 2018)
